Results as given in BindingDB's records for PubMed 8102785 (University of Pennsylvania, 1993).
pKi: −log10 of the molar value. *1 amine or outer side, *2 acyl side, *3 side chain or, on linkers, in order; H or OH if unused. Where a SMILES comes first, the peptide text is derived from it. Bridges are numbered along the chain shown (N, C = ends). [ ]: non-standard residue; d: D form. The star is where a group is joined. ξ: configuration not given here. X3 = C[C@@H](C(=O)[*:2])N(Cc1ccc2ccccc2c1)[*:1]; NH(1-naphthylmethyl) = c1ccc2c(CN*)cccc2c1; Phe(4-Cl) = N[C@@H](Cc1ccc(Cl)cc1)C(=O)O; 1Nal = N[C@@H](Cc1cccc2ccccc12)C(=O)O; 2Nal = N[C@@H](Cc1ccc2ccccc2c1)C(=O)O; d1Nal = N[C@H](Cc1cccc2ccccc12)C(=O)O; d2Nal = N[C@H](Cc1ccc2ccccc2c1)C(=O)O; dThr(3ξ) = CC(O)[C@@H](N)C(=O)O; X1 = O=C(C(N[*:1])S[*:3])[*:2]; Thr(3ξ) = CC(O)[C@H](N)C(=O)O; ξF = NC(Cc1ccccc1)C(=O)O; X2 = CC(O)[C@H](CO)N*; Aoc = NCCCCCCCC(=O)O; Ahp = NCCCCCCC(=O)O; Ahx = NCCCCCC(=O)O; Bn = c1ccc(C*)cc1; ξC = NC(CS)C(=O)O; Mpa = O=C(O)CCS

Molecular target: Somatostatin receptor type 4 (Rattus norvegicus, UniProt P30937)
Sequence (P30937 whole entry): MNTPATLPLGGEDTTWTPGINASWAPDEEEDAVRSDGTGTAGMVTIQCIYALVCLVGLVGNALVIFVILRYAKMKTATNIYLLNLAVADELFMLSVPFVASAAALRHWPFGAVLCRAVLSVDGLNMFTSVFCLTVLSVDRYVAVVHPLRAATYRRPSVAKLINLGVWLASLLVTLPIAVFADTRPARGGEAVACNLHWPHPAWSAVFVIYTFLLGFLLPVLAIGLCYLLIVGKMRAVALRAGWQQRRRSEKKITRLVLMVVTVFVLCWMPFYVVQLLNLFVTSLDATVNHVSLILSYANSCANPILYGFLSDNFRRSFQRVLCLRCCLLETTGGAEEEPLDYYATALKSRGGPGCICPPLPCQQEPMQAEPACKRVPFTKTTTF

SMILES	pKi
CC(C)[C@H](NC(=O)[C@H](CCCCN)NC(=O)[C@@H](Cc1c[nH]c2ccccc12)NC(=O)[C@H](Cc1ccc(O)cc1)NC(=O)[C@H](Cc1ccccc1)NC(=O)[C@H](N)Cc1ccccc1)C(=O)N[C@@H](Cc1ccccc1)C(=O)N[C@H](Cc1cccc2ccccc12)C(N)=O [BIM 23056] (H-[dF]FY[dW]KVF[d1Nal]-NH2)	7.37
CC(C)[C@H](NC(=O)[C@H](CCCCN)NC(=O)[C@@H](Cc1c[nH]c2ccccc12)NC(=O)[C@H](Cc1ccc(O)cc1)NC(=O)[C@H](C)NCc1ccc2ccccc2c1)C(=O)N[C@@H](C)C(=O)N[C@H](C(N)=O)[C@@H](C)O [D-Nal-Ala-Tyr-D-Trp-Lys-Val-Ala-Thr-NH2] (H-[X3]Y[dW]KVAT-NH2)	6.84
C[C@@H](OCc1ccccc1)[C@@H]1NC(=O)[C@H](CCCCN)NC(=O)[C@@H](Cc2c[nH]c3ccccc23)NC(=O)[C@H](Cc2ccccc2)NC(=O)CCCCCCCNC1=O [c[Aoc-Phe-D-Trp-Lys-Thr(Bzl)]] (cyclo([Aoc]F[dW]KT(Bn)))	7.30
CC(O)[C@H](CO)NC(=O)[C@@H]1CSSCC(NC(=O)C(N)Cc2ccccc2)C(=O)N[C@H](Cc2ccccc2)C(=O)N[C@H](Cc2c[nH]c3ccccc23)C(=O)N[C@H](CCCCN)C(=O)N[C@H](C(C)O)C(=O)N1 (stereo not given in full) (H-[ξF][ξC][dF][dW][dK][dThr(3ξ)]C-X2; disulfide 2-7)	9.24
NCCCC[C@@H]1NC(=O)[C@@H](Cc2c[nH]c3ccccc23)NC(=O)[C@H](Cc2ccccc2)NC(=O)CCCCCCNC(=O)[C@H](COCc2ccccc2)NC1=O [c[Aha-Phe-D-Trp-Lys-Ser(Bzl)]] (cyclo([Ahp]F[dW]KS(Bn)))	6.73
C[C@@H](OCc1ccccc1)[C@@H]1NC(=O)[C@H](CCCCN)NC(=O)[C@@H](Cc2c[nH]c3ccccc23)NC(=O)[C@H](Cc2ccccc2)NC(=O)CCCCCNC1=O [c[Ahx-Phe-D-Trp-Lys-Thr(Bzl)]] (cyclo([Ahx]F[dW]KT(Bn)))	7.47
CC(C)[C@H](NC(=O)[C@H](CCCCN)NC(=O)[C@@H](Cc1c[nH]c2ccccc12)NC(=O)[C@H](Cc1ccc(O)cc1)NC(=O)[C@H](C)NC(=O)[C@H](N)Cc1ccccc1)C(=O)N[C@@H](C)C(=O)N[C@@H](Cc1ccc2ccccc2c1)C(N)=O [L-Alaninamide,D-phenylalanyl-L-alanyl-L-tyrosyl-D-tryptophyl-L-lysyl-L-valyl-L-alanyl-3-(2-naphthalenyl)-(9CI)] (H-[dF]AY[dW]KVA[2Nal]-NH2)	7.54
CC(O)[C@H](NC(=O)[C@H](CCCCN)NC(=O)[C@@H](Cc1c[nH]c2ccccc12)NC(=O)[C@H](Cc1ccc(O)cc1)NC(=O)[C@@H](C)NC(=O)[C@@H](N)Cc1ccccc1)C(=O)N[C@@H](C)C(=O)N[C@@H](Cc1cccc2ccccc12)C(N)=O (stereo not given in full) [BIM 23070] (H-F[dA]Y[dW]K[Thr(3ξ)]A[1Nal]-NH2)	8.00
CC(C)[C@H](NC(=O)[C@H](CCCCN)NC(=O)[C@@H](Cc1c[nH]c2ccccc12)NC(=O)[C@H](Cc1ccc(O)cc1)NC(=O)[C@H](Cc1ccc(Cl)cc1)NC(=O)[C@@H](N)Cc1ccccc1)C(=O)N[C@@H](Cc1ccccc1)C(=O)N[C@@H](Cc1ccc2ccccc2c1)C(N)=O [BIM 23063] (H-F[Phe(4-Cl)]Y[dW]KVF[2Nal]-NH2)	7.37

Continued by rising pKi, values first:

pKi	SMILES
8.02	C[C@@H](O)[C@H](NC(=O)[C@H](Cc1ccccc1)NC(=O)[C@@H](NC(=O)[C@H](CCCCN)NC(=O)[C@@H](Cc1c[nH]c2ccccc12)NC(=O)[C@H](Cc1ccc(O)cc1)NC(=O)[C@H](Cc1ccc(Cl)cc1)NC(=O)[C@H](N)Cc1ccc2ccccc2c1)[C@@H](C)O)C(N)=O [CAS_150155-63-8] (H-[d2Nal][Phe(4-Cl)]Y[dW]KTFT-NH2)
8.09	CC(C)[C@H](NC(=O)[C@H](CCCCN)NC(=O)[C@@H](Cc1c[nH]c2ccccc12)NC(=O)[C@H](Cc1ccc(O)cc1)NC(=O)[C@H](Cc1ccc(Cl)cc1)NC(=O)[C@H](N)Cc1ccccc1)C(=O)N[C@@H](Cc1ccccc1)C(=O)N[C@H](C(N)=O)[C@@H](C)O [BIM 23057] (H-[dF][Phe(4-Cl)]Y[dW]KVFT-NH2)
8.23	CC(C)[C@H](NC(=O)[C@H](CCCCN)NC(=O)[C@@H](Cc1c[nH]c2ccccc12)NC(=O)[C@H](Cc1ccc(O)cc1)NC(=O)[C@H](C)NC(=O)[C@H](N)Cc1ccccc1)C(=O)N[C@@H](C)C(=O)N[C@H](Cc1ccc2ccccc2c1)C(N)=O [D-Phe-AIa-Tyr-D-Trp-Lys-Val-Ala-D-Nal-NH2] (H-[dF]AY[dW]KVA[d2Nal]-NH2)
8.28	CC(C)[C@@H]1NC(=O)[C@H](CCCCN)NC(=O)[C@@H](Cc2c[nH]c3ccccc23)NC(=O)[C@H](Cc2ccc(O)cc2)NC(=O)[C@@H](NC(=O)[C@H](N)Cc2ccc3ccccc3c2)CSSC[C@@H](C(=O)N[C@@H](Cc2ccc3ccccc3c2)C(N)=O)NC1=O [BIM 23042] (H-[d2Nal]CY[dW]KVC[2Nal]-NH2; disulfide 2-7)
8.41	CC(C)[C@@H]1NC(=O)[C@H](CCCCN)NC(=O)[C@@H](Cc2c[nH]c3ccccc23)NC(=O)[C@H](Cc2ccc(O)cc2)NC(=O)CCSSC(C(=O)N[C@@H](Cc2ccccc2)C(N)=O)NC1=O (stereo not given in full) [CAS_117580-24-2] ([Mpa]Y[dW]KV[X1]F-NH2; disulfide 1-6)
8.48	CC(C)[C@H](NC(=O)[C@H](CCCCN)NC(=O)[C@@H](Cc1c[nH]c2ccccc12)NC(=O)[C@H](Cc1ccc(O)cc1)NC(=O)[C@H](Cc1ccccc1)NC(=O)[C@H](N)Cc1ccccc1)C(=O)N[C@@H](Cc1ccccc1)C(=O)N[C@H](Cc1ccccc1)C(N)=O [D-Phe-Phe-Tyr-D-Trp-Lys-Val-Phe-D-Phe-NH2] (H-[dF]FY[dW]KVF[dF]-NH2)
8.96	C[C@@H](O)[C@H](NC(=O)[C@H](Cc1ccccc1)NC(=O)[C@@H](NC(=O)[C@H](CCCCN)NC(=O)[C@@H](Cc1c[nH]c2ccccc12)NC(=O)[C@H](Cc1ccc(O)cc1)NC(=O)[C@H](Cc1ccc(Cl)cc1)NC(=O)[C@H](N)Cc1ccccc1)[C@@H](C)O)C(N)=O [BIM 23068] (H-[dF][Phe(4-Cl)]Y[dW]KTFT-NH2)
9.00	NCCCCC1NC(=O)C(Cc2c[nH]c3ccccc23)NC(=O)C(Cc2ccc(O)cc2)NC(=O)C(NC(=O)C(N)Cc2ccccc2)CSSCC(C(=O)NCc2cccc3ccccc23)NC(=O)C(CO)NC1=O (stereo not given) [NC4-28B] (H-FCYWKSC-{NH(1-naphthylmethyl)}; disulfide 2-7; configuration not given here)
9.33	C[C@@H](O)[C@@H]1NC(=O)[C@H](CCCCN)NC(=O)[C@@H](Cc2c[nH]c3ccccc23)NC(=O)[C@H](Cc2ccccc2)NC(=O)[C@H](Cc2ccc(Cl)cc2)NC(=O)CCCCCCNC(=O)[C@H](Cc2ccccc2)NC1=O [L-362862] (cyclo([Ahp][Phe(4-Cl)]F[dW]KTF))
9.74	CC[C@@H]1NC(=O)[C@H](CCCCN)NC(=O)[C@@H](Cc2c[nH]c3ccccc23)NC(=O)[C@H](Cc2ccc(O)cc2)NC(=O)[C@@H](NC(=O)[C@H](N)Cc2ccccc2)CSSC[C@@H](C(=O)N[C@H](C(N)=O)[C@@H](C)O)NC1=O [D-Phe-L-Cys(1)-L-Tyr-D-Trp-L-Lys-L-Abu-L-Cys(1)-L-Thr-NH2]
10.05	CC(O)C1NC(=O)C(CCCCN)NC(=O)C(Cc2c[nH]c3ccccc23)NC(=O)C(Cc2ccc(O)cc2)NC(=O)C(NC(=O)C(N)Cc2ccccc2)CSSCC(C(=O)NCc2cccc3ccccc23)NC1=O (stereo not given) [BIM 23060] (H-FCYWKTC-{NH(1-naphthylmethyl)}; disulfide 2-7; configuration not given here)
